We go through two molecules from US9358262B2, “Use of antioxidant-enriched fermented blueberry extracts in the treatment of diabetes” (priority 2003, dated 2016).

“Also recorded” adds a separate entry of the source.

For assay [1], the system named is LPS/IFN-γ-activated RAW 264.7 gamma NO(−) macrophages. As to the kind of experiment: Inhibition of nitric oxide production (nitrite, Griess reaction) in activated macrophages. It is filed as cell-based, mouse. Particulars: for Nitrite: 24 h after LPS/IFN-γ; for inhibition at 63 µM: RAW264.7, 63 μM (μM GAE for juices); for inhibition at 125 µM: RAW264.7, 125 μM (μM GAE for juices); for inhibition at 250 µM: RAW264.7, 250 μM (μM GAE for juices); for inhibition at 500 µM: RAW264.7, 500 μM (μM GAE for juices); for Effect on NO production, in words: over the tested concentrations. On the procedure:
Cell culture. The mouse monocyte/macrophage cell line RAW 264.7 gamma NO(−) [American Type Culture Collection (ATCC)] was cultured in RPMI-1640 supplemented with 10% (v/v) heat-inactivated FBS, streptomycin ([…]) and penicillin (100 units/ml). All cultures were incubated at 37° C. in a humidified atmosphere with 5% CO2. Cell number was assessed by trypan blue dye exclusion on a Neubauer hemacytometer. Cells were grown to 90% confluence in sterile cell culture flasks and gently detached using a scraper (Fisher Scientific). For phenolic compound treatment tests, cells were cultured in triplicate in Costar flat-bottom cell culture plates (Corning Inc.). Cells were plated at a density of 6×10^5 cells/well in 24-well cell culture plates and grown for 1 h to allow them to attach to the plate. Compounds to be tested were initially dissolved in 10 μl of DMSO, and then RPMI was added to make solutions in a series of concentrations with a dilution factor of 2. The final concentrations of test compound that cells received were 16, 31, 63, 125, 250, and 500 μM, respectively. For berry juices, the final concentrations were 16, 31, 63, 125, 250 and 500 μM GAE, respectively. Cells were supplemented with the test compounds for 1 h before stimulation with 10 ng/ml lipopolysaccharide (LPS) and 10-50 units/ml interferon gamma (IFN-γ). The activated cells were incubated for 24 h and then supernatants were collected to determine nitrite concentration and/or stored at −80° C. for further use. Control cells were grown under identical conditions but were not exposed to the test compounds or LPS/IFN-γ.
Nitric Oxide (NO) Determination. Nitrite concentration was used as an indication of NO production. The procedure for NO determination was based on the Griess reaction. The assay was assessed as in the methods of Wang and Mazza (2002a, 2002b) for cell supernatants supplemented with phenolic compounds or berry juices. In brief, 100 μL of cell culture supernatant or sodium nitrite standard was mixed with an equal volume of Griess reagent [a mixture of 0.1% (w/v) N-(1-naphthyl)-ethylenediamine dihydrochloride and 1% (w/v) sulfanilamide in 5% (v/v) phosphoric acid, the two parts being mixed together within 1 h of use] using a 96-well plate. A set of parallel analyses was also conducted by applying only 100 μL of 2.5% (v/v) phosphoric acid instead of Griess reagent to each of 100 μL of cell supernatants or the mixture of standard sodium nitrite and cyanidin chloride. After 20 min at room temperature, the absorbance at 540 nm was measured using the microtitration reader. The net absorbance of the product of the Griess reaction was obtained by subtracting that of anthocyanins from the total. The absorbance was referred to a nitrite standard curve to determine the nitrite concentration in the supernatants.
Inhibition of Nitric Oxide Production. RAW 264.7 gamma NO(−) cell line was derived from the RAW 264.7 mouse monocyte/macrophage cell line. […] When LPS/IFN-γ was administered to RAW 264.7 gamma (NO−) macrophages, NO production, measured as nitrite, increased dramatically from the basal level of 0 to ≧30 μM after 24 h. To determine the effects of cranberry and blueberry juice and other phenolic compounds on NO production, different concentrations of these compounds (500, 250, 125, 63, and 16 μM) were incubated with the LPS/IFN-γ-activated macrophages (Table 7). Cell viability was assayed to exclude the possibility that the inhibitory effects of phenolic compounds were due to their cytotoxicity. The MTT assay was used for the colorless phenolic compound-treated macrophages, whereas the resazurin assay was used for cranberry and blueberry juice-treated macrophages. […]
On the technique in general: The Griess reaction detects nitrite, a stable product of nitric oxide.

For assay [2] the following is noted: reference phenolic compounds, Fukumoto and Mazza (2000); cited from earlier work.
Where [3] appears, read: Mus musculus, read-out: Inhibitory effect (decrease of NO production).

Turning to `O=C(/C=C/c1ccc(O)c(O)c1)O[C@@H]1C[C@](O)(C(=O)O)C[C@@H](O)[C@H]1O` [Chlorogenic acid], the Nitrite is given as 37.1 (0.4) μM in assay [1] (16 μM (μM GAE for juices)); 39 (1) μM in assay [1] (31 μM (μM GAE for juices)); 40.4 (1.64) μM in assay [1] (63 μM (μM GAE for juices)); 41.7 (1.7) μM in assay [1] (125 μM (μM GAE for juices)); 47.6 (1.4) μM in assay [1] (250 μM (μM GAE for juices)); 46.6 (1.5) μM in assay [1] (500 μM (μM GAE for juices)). For the same molecule, the inhibition at 16 µM in assay [1] (Mus musculus, RAW264.7, 16 μM (μM GAE for juices), read-out: Inhibitory effect (decrease of NO production)) was -9.6%. Moreover, the inhibition at 31 µM in assay [1] (Mus musculus, RAW264.7, 31 μM (μM GAE for juices), read-out: Inhibitory effect (decrease of NO production)) was -15.2%. The inhibition at 63 µM in assay [1] (setting [3]) is -19.5%. Also, the inhibition at 125 µM in assay [1] (setting [3]) is -23.4%. Moreover, in assay [1] (setting [3]), the inhibition at 250 µM is -40.8%. In addition, the inhibition at 500 µM in assay [1] (setting [3]) was -37.9%. Further, in assay [1], the “Effect on NO production, in words” value is listed as “showed no inhibitory effects; also recorded: induced production of NO”.
Turning to `O=C(O)c1cc(O)c(O)c(O)c1` [Gallic acid], the Nitrite in assay [1] (16 μM (μM GAE for juices)) is 36.2 (3.7) μM; in assay [1] (31 μM (μM GAE for juices)) it was 35.4 (2.9) μM; in assay [1] (63 μM (μM GAE for juices)), 29.3 (0.3) μM; in assay [1] (125 μM (μM GAE for juices)) it was 31.1 (5.9) μM; in assay [1] (250 μM (μM GAE for juices)), 25.2 (1.5) μM; in assay [1] (500 μM (μM GAE for juices)) it was 22.6 (0.6) μM. Further, the “Inhibitory effect (decrease of NO production)” value in assay [1] (500 μM (μM GAE for juices), 500 µM) is on record as 30.9 (1.9) %. Besides, the inhibition at 63 µM in assay [1] (setting [3]) came out at 10.5%. Besides, the inhibition at 125 µM in assay [1] (setting [3]) was 19%. Moreover, the inhibition at 250 µM in assay [1] (setting [3]) was 23%. Moreover, in assay [1] (setting [3]), the inhibition at 500 µM turned out to be 30%. Moreover, the “Effect on NO production, in words” value in assay [1] was “dose-dependent”. In assay [2], the Antiradical activity is given as −6.21 (0.60). The Antiradical power in assay [2] is given as 12.50.
